Our source for the solubility and Ki values is ChEMBL document CHEMBL4229543, “Squaramides as novel class I and IIB histone deacetylase inhibitors for topical treatment of cutaneous t-cell lymphoma” (Bioorg Med Chem Lett, 2018).

Data set [1] can be described thus: Solubility in PG/EtOH (96%) at 30 mg/mL after 24 hrs by UV-spectrometric method. Conditions: PG/EtOH (96%). Type of data set: physicochemical.
A short description of data set [2]: Solubility in pH 7.4 phosphate buffer solution at 100 uM after 24 hrs by HPLC method. In kind it is physicochemical. Conditions: phosphate buffer, pH 7.4.
The target in a further data set is Histone deacetylase 9 (Homo sapiens, UniProt Q9UKV0). Description: Inhibition of human recombinant HDAC9 using fluorogenic HDAC substrate class 2a after 30 mins by fluorimetrc method.
Data set [3] addresses T1, NAD-dependent protein deacetylase sirtuin-3, mitochondrial (Homo sapiens, UniProt Q9NTG7).
T1 sequence (Q9NTG7 whole entry): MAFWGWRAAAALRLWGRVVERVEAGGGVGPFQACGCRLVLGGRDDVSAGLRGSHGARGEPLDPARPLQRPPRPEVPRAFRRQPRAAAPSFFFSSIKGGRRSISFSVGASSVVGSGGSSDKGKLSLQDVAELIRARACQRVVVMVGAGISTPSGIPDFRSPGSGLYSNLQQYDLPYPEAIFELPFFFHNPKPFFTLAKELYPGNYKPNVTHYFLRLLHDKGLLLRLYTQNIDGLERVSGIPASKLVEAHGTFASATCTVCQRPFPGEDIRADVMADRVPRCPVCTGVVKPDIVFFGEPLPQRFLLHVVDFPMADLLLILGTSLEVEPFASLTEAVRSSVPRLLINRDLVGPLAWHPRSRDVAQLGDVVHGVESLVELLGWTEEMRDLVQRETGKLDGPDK
Description: Inhibition of human recombinant SIRT3 using fluoro-lysine sirtuin 2 deacetylase substrate after 45 mins by fluorimetrc method.

The target in another data set is T2, Histone deacetylase 11 (Homo sapiens, UniProt Q96DB2).
T2 sequence (Q96DB2 whole entry): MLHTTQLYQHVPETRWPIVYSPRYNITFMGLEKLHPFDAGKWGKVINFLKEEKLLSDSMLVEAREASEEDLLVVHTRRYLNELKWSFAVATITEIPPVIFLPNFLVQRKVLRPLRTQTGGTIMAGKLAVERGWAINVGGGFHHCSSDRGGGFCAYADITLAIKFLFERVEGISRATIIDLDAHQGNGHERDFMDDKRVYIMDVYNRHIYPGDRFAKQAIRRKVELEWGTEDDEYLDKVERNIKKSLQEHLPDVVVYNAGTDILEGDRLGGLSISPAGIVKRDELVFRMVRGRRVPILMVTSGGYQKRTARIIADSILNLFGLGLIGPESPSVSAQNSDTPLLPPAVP
Description: Inhibition of human recombinant HDAC11 using fluorogenic HDAC substrate class 2a after 30 mins by fluorimetrc method.

≈ marks a conversion by molar mass, not a printed value. A value given as a limit tells only on which side of the number the result lay.

Chain of Histone deacetylase 9 (Q9UKV0 whole entry): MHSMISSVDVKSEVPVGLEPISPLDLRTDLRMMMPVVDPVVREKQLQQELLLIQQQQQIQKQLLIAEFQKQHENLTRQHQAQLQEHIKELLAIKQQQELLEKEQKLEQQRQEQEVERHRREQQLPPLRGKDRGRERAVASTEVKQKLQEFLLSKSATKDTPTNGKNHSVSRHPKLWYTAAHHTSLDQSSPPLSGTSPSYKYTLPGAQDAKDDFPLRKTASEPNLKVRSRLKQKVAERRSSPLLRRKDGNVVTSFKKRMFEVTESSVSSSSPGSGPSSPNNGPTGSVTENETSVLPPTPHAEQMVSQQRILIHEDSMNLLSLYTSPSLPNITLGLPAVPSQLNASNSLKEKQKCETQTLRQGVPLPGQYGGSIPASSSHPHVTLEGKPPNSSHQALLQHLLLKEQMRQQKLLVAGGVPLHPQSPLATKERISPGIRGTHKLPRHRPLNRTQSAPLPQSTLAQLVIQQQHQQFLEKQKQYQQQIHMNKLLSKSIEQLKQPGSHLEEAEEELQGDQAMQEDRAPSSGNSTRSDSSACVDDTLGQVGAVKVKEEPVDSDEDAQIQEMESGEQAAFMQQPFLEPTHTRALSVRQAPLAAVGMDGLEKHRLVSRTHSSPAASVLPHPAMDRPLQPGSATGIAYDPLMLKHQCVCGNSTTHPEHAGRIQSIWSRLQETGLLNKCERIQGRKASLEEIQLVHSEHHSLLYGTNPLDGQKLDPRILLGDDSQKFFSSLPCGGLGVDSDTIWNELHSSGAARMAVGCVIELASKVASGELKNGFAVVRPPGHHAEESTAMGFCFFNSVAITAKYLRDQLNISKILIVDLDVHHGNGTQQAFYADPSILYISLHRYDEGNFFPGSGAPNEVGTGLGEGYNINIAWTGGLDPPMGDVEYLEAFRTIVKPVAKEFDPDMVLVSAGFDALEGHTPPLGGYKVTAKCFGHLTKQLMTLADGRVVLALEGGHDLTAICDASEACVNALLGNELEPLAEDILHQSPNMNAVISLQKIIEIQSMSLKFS

`CC(Nc1c(NCCCCCC(=O)NO)c(=O)c1=O)C12CC3CC(CC(C3)C1)C2` (stereo not given) registered a solubility at 24 h in data set [1] of 39000 µM (≈ 15700 µg/mL). This compound displayed a solubility at 24 h, 100 µM in data set [2] of 24 µM (≈ 9.68 µg/mL). Moreover, the figures for the Ki (at Histone deacetylase 9; in data set [3]; at Histone deacetylase 11) were above 10 µM, above 10 µM and 0.038 µM, respectively.

For `COc1ccc(Nc2c(NCCCCCC(=O)NO)c(=O)c2=O)cc1`, the solubility at 24 h in data set [1] amounted to 300 µM (≈ 104 µg/mL). The same compound gave a solubility at 24 h, 100 µM in data set [2] of 3.3 µM (≈ 1.15 µg/mL). Moreover, the Ki is above 10 µM on Histone deacetylase 9, above 10 µM in data set [3] and 0.14 µM at Histone deacetylase 11.

Take `CC(C)(CCCCC(=O)NO)Nc1c(Nc2ccc(C(F)(F)F)cc2)c(=O)c1=O`: in data set [1], the solubility at 24 h was 30000 µM (≈ 12400 µg/mL). The same compound showed a solubility at 24 h, 100 µM in data set [2] of 36 µM (≈ 14.9 µg/mL). The results for the Ki (at Histone deacetylase 9; in data set [3]; on Histone deacetylase 11) were above 10 µM, above 10 µM and 0.021 µM, respectively.
